Legend:
[1] = system: HCT-8 cells; assay: Lipid droplets in HCT-8 cells, Oil Red O staining; type: cell-based, human; details: 1000 mg/ml DON or 2 μM ANS, 24 h, FIG. 2
Protocol: To confirm the effect of ribosome inactivation on fat accumulation, enterocyte and hepatocyte exposed to ribosome inactivation stress using the ribosome-binding agent were stained with Oil Red O.
Specifically, HCT-8 cells and HepG2 cells were obtained from the American Type Culture Collection (ATCC Rockville, Md., USA). HCT-8 and HepG2 cells were treated with vehicle, […], or 2 μM anisomycin (ANS) for 24 h. […] The staining results of HCT-8 cells are illustrated in FIG. 2 and the staining results of HepG2 cells are illustrated in FIG. 3.

[2] = system: LDLR; assay: mRNA level of LDLR in HepG2 cells, real-time RT-PCR; type: cell-based, human; details: HepG2 cells, 100, 500, 1000 ng/ml DON or 500, 1000, 2000 nM ANS, 1 hour, dose dependent, FIG. 11
[3] = system: LDLR; assay: Protein level of LDLR in HCT-8 cells, Western blot; type: cell-based, human; details: whole cell lysates, FIG. 9
Protocol: Further, HCT-8 cells were treated with vehicle or 1000 ng/ml DON for the indicated time. Thereafter, protein levels of LDLR were measured using whole cell lysates via Western blots. Specifically, the cells were washed with phosphate buffer. Subsequently, the cells were dissolved in lysis buffer (1% [w/v] SDS, 1.0 mM sodium orthovanadate, and 10 mM Tris [pH 7.4]). The lysate was sonicated for 5 seconds. The lysate was quantitated using the BCA protein assay kit (Pierce, Rockford, Ill., USA). Subsequently, immunoblotting was carried out to confirm the level of the protein in the cells. The results are illustrated in FIG. 9.

[4] = system: LDLR; assay: mRNA level of LDLR in HCT-8 cells, real-time RT-PCR; type: cell-based, human; details: HCT-8 cells, 100, 500, 1000 ng/ml DON or 500, 1000, 2000 nM ANS, 2 hours, dose dependent, FIG. 10
Protocol: Further, HCT-8 cells were treated with vehicle or 1000 ng/ml DON for the indicated time. In these treated cells, an mRNA level of LDLR was measured using real-time RT-PCR. Specifically, RNA was extracted using RiboEX (GeneAll Biotechnology, Seoul, Korea). Subsequently, the RNA (100 ng) from each sample was transcribed into cDNA using Prime Moloney murine leukemia virus reverse transcriptase (Genetbio, Nonsan, South Korea). The cDNA was then amplified using n-Taq DNA polymerase (Enzynomics, Seoul, South Korea). The amplified cDNA was treated at 95° C. for 2 minutes. The cDNA was then treated for 30 seconds at 95° C., for 30 seconds at 58° C. and for 30 seconds at 72° C. at each of different cycles. The thus treated cDNA was amplified and the amplification thereof was confirmed by electrophoresis. FAM was used as a fluorescent reporter staining drug. FAM was conjugated to a 5′ terminal of a product of the amplified cDNA. The resulting product was subjected to real-time RT-PCR using an iCycler thermal cycler (Bio-Rad). […]
Additionally, to determine the effect of chemical ribosome inactivators (DON, ANS) at different doses on the LDLR expression level, HCT-8 cells were treated with vehicle, 0, 100, 500, 1000 ng/ml DON or 0, 500, 1000, 2000 nM ANS for 2 hours. Then, mRNA levels of LDLR in the cells were measured using real-time RT-PCR. […] The mRNA level of the LDLR of the cells was measured. […]

[5] = system: LDLR; assay: LDLR immunohistochemistry in ileum and jejunum of mice fed DON; type: in vivo; details: 25 mg/kg DON oral feeding, after 24 hours, IHC, FIG. 12
Protocol: Further, additional animal studies were performed to determine whether ribosome-inactivation stress increases a level of LDLR expression in the small intestine. Six-week-old male B6C3F1 mice (C57B1/6J×C3H/HeJ) were purchased from Samtako Bio Korea (Osan, South Korea). Animal experiments were performed according to the animal test method as approved in the Laboratory Animal Care Committee (PNU-2010-0291). Vehicle or 25 mg/kg DON was administered to the mice via oral feeding. After 24 hours, immunohistochemistry (IHC) was performed on ileum and jejunum to measure LDLR expression levels. The results are illustrated in FIG. 12.

Row | SMILES | fat accumulation in HCT-8 cells [1] | mRNA level of LDLR [2] | protein levels of LDLR [3] | mRNA level of LDLR [4] | level of LDLR expression in the mouse small intestine (villus epithelium of ileum and jejunum) [5]
1 | COc1ccc(C[C@H]2NC[C@H](O)[C@H]2OC(C)=O)cc1 [ANS, anisomycin] | dose-dependently increased | increases | increases | increases | 
2 | CC1=C[C@H]2O[C@@H]3[C@H](O)C[C@](C)([C@@]2(CO)[C@H](O)C1=O)[C@]31CO1 [DON, deoxynivalenol] | dose-dependently increased | increases | increases | increases | increase

Reference: patent US10799477B2, “Pharmaceutical composition for preventing or treating LDL cholesterol-related diseases, containing ribosome-binding preparation” (PUSAN NATIONAL UNIVERSITY INDUSTRY UNIVERSITY, priority 2016, dated 2020)
